ChEMBL document CHEMBL5154787 (J Med Chem, 2022)
pIC50, pKi: −log10 of the molar value.

Key:
[1] = Metabolic stability in human liver microsomes assessed as parent compound remaining at 0.5 uM incubated for 10 mins in presence of NADPH by LC-MS/MS analysis; type: ADME, Microsome; settings: read-out: Stability
[2] = Efflux ratio of permeability in human Caco-2 cells; type: ADME, cell-based
[3] = biological target: T1, AP2-associated protein kinase 1 (Homo sapiens, UniProt Q2M2I8); test: Inhibition of full length human AAK1 expressed in HEK293F cells assessed as suppression of AP2 phosphorylation measured after 3 hrs by Western blot analysis based cellular assay; type: cell-based
[4] = biological target: AP2-associated protein kinase 1 (Mus musculus, UniProt Q3UHJ0); test: Displacement of 3H-LP-927443 from AAK1 in C57BL6 mouse brain homogenate assessed as inhibition constant incubated for 1 hr by liquid scintillation counter analysis; type: tissue-based
[5] = Metabolic stability in mouse liver microsomes assessed as parent compound remaining at 0.5 uM incubated for 10 mins in presence of NADPH by LC-MS/MS analysis; type: ADME, Microsome; settings: liver microsomes, read-out: Stability
[6] = Metabolic stability in rat liver microsomes assessed as parent compound remaining at 0.5 uM incubated for 10 mins in presence of NADPH by LC-MS/MS analysis; type: ADME, Microsome; settings: read-out: Stability
Cytochrome P450 3A4 = Cytochrome P450 3A4 (Homo sapiens, UniProt P08684); test: Inhibition of CYP3A4 (unknown origin) incubated for 10 mins in presence of NADPH by LC-MS/MS analysis; type: ADME
[7] = biological target: T1, AP2-associated protein kinase 1; test: Inhibition of bacterially expressed GST-Xa-tagged human AAK1 using 5-FAM-labelled Aha-KEEQSQITSQVTGQIGWR-NH2 peptide as substrate incubated for 3 hrs in presence of ATP by electrophoretic analysis
[8] = Ratio of drug concentration in brain to plasma in Sprague-Dawley rat at 3 mg/kg, po measured at 2 hrs post dose; type: ADME, organism-based
[9] = biological target: Rho-associated protein kinase 2 (Homo sapiens, UniProt O75116); test: Inhibition of ROCK2 (unknown origin)
[10] = biological target: T2, Cyclin-G-associated kinase (Homo sapiens, UniProt O14976); test: Inhibition of GAK (unknown origin)
T2 sequence (O14976 whole entry): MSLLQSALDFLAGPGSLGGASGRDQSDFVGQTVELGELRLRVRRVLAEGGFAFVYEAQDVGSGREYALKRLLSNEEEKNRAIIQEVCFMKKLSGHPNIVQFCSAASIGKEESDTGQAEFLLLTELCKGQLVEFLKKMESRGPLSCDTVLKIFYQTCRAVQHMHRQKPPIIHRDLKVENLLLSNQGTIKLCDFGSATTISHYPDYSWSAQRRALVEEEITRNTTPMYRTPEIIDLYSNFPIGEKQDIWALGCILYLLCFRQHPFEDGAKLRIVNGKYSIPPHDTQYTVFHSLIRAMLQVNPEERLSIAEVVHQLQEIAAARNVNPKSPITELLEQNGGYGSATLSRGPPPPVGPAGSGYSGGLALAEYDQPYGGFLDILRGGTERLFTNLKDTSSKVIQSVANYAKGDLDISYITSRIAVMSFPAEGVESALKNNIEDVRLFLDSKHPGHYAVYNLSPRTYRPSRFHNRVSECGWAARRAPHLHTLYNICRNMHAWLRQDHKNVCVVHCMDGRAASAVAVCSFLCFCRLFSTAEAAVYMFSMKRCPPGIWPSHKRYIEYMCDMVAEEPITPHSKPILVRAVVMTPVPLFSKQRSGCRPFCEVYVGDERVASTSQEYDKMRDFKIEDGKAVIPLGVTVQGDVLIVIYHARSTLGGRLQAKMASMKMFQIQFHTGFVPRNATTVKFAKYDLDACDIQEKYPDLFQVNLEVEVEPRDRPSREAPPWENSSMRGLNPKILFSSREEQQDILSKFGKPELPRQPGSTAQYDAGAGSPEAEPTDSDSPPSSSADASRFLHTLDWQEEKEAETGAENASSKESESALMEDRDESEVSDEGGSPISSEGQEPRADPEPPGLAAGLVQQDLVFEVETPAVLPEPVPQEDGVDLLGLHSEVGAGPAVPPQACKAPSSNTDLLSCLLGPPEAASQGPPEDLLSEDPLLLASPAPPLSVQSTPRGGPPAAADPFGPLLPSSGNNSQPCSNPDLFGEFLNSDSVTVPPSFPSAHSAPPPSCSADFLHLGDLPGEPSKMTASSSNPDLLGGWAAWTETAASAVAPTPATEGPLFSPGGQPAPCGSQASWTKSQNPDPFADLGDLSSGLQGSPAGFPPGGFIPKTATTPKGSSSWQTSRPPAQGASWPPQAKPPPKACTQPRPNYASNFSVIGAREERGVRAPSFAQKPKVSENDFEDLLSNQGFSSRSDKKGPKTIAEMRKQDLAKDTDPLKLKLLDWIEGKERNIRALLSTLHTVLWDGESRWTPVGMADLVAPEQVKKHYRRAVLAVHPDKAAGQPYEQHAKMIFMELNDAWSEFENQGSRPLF

[11] = biological target: Citron Rho-interacting kinase (Homo sapiens, UniProt O14578); test: Inhibition of CRIK (unknown origin)
[12] = biological target: Myosin light chain kinase 2, skeletal/cardiac muscle (Homo sapiens, UniProt Q9H1R3); test: Inhibition of MYLK2 (unknown origin)
[13] = biological target: MAP kinase-interacting serine/threonine-protein kinase 1 (Homo sapiens, UniProt Q9BUB5); test: Inhibition of MNK1 (unknown origin)
[14] = Cardiotoxicity in aortic ring (unknown origin) assessed as relaxation of phenylephrine induced aortic ring contraction at 10 uM incubated for 1 hr; type: toxicity, tissue-based, Aorta; set-up: scale not given: the % may be the effect or the level left; settings: human
[15] = biological target: TRAF2 and NCK-interacting protein kinase (Homo sapiens, UniProt Q9UKE5); test: Inhibition of TNIK (unknown origin)
[16] = biological target: BMP-2-inducible protein kinase (Homo sapiens, UniProt Q9NSY1); test: Inhibition of BIKE (unknown origin)
[17] = Ratio of drug concentration in spinal cord to plasma in STZ-induced diabetic peripheral neuropathic mechanical allodynia in overnight fasted Sprague-Dawley rat at 1 mg/kg, po measured at 5.75 hrs post dose; type: ADME, organism-based
[18] = Plasma concentration in STZ-induced diabetic peripheral neuropathic mechanical allodynia in overnight fasted Sprague-Dawley rat at 1 mg/kg, po measured at 5.75 hrs post dose; type: ADME, organism-based
[19] = Drug concentration in STZ-induced diabetic peripheral neuropathic mechanical allodynia in overnight fasted Sprague-Dawley rat spinal cord at 1 mg/kg, po measured at 5.75 hrs post dose; type: ADME, organism-based; settings: read-out: Ct

Chain of Cytochrome P450 3A4 (P08684 whole entry): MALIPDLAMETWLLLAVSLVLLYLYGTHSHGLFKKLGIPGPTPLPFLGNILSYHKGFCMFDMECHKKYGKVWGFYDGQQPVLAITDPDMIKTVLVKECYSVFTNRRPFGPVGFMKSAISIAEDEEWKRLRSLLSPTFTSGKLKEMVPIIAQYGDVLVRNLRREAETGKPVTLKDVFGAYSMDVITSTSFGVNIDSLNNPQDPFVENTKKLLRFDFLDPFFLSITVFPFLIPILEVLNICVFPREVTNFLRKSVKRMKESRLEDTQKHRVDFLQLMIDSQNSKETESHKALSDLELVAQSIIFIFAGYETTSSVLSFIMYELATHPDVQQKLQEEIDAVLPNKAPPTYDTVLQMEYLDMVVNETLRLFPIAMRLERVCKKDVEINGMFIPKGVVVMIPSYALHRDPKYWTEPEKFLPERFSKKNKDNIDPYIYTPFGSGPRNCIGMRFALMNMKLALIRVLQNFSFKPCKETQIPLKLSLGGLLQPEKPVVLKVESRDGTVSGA
T1 sequence (Q2M2I8 whole entry): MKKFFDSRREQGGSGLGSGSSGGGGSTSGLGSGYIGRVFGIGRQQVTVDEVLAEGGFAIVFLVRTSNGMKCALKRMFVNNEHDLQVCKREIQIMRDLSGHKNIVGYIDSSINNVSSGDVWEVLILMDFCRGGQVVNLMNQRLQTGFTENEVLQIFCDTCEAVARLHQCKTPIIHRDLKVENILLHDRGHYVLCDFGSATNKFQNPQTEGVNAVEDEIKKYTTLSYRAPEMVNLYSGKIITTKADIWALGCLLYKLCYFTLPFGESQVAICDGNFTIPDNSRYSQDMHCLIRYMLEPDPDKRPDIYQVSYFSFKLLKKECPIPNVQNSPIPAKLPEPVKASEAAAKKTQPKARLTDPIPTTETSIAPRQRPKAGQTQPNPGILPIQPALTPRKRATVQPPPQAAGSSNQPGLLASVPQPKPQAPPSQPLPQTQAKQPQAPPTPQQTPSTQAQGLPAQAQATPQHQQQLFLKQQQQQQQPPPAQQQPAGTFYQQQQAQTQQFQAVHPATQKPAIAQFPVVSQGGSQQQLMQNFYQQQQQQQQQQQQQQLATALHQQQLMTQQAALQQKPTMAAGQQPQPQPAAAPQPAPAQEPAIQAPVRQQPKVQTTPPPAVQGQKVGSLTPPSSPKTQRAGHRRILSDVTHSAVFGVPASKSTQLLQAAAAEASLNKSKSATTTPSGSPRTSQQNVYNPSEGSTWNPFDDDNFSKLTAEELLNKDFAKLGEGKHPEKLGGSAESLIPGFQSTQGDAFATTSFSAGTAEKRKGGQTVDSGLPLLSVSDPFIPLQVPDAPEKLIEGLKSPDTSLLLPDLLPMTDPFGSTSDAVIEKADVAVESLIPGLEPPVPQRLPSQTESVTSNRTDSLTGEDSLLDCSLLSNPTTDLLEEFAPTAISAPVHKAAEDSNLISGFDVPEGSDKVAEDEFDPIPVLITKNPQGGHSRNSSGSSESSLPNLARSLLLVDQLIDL
Chain of AP2-associated protein kinase 1 (Mus musculus, UniProt Q3UHJ0) (Q3UHJ0 whole entry): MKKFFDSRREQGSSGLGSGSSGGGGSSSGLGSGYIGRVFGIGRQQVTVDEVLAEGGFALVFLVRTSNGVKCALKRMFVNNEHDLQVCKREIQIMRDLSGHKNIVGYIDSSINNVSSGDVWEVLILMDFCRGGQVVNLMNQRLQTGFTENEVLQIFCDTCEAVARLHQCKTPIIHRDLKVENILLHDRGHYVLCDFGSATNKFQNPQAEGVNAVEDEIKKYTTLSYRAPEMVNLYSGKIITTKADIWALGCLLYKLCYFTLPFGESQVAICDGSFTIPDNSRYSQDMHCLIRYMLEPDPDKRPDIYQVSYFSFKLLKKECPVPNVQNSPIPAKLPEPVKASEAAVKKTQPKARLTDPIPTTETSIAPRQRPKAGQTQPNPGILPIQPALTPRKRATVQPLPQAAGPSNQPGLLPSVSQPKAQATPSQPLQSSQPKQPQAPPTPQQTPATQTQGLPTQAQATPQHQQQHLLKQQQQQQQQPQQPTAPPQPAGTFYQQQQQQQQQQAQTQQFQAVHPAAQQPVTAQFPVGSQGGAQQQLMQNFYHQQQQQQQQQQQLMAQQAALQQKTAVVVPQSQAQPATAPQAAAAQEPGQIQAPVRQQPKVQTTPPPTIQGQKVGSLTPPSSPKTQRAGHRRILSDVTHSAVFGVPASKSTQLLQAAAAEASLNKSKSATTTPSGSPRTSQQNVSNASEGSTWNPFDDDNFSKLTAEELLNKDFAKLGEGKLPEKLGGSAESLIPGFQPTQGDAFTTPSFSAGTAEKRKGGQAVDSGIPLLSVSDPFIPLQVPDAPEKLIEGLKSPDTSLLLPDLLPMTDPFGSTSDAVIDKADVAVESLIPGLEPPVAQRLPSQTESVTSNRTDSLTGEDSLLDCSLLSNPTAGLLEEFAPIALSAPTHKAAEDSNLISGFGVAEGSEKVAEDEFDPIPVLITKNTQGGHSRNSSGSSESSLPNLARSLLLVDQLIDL
Chain of MAP kinase-interacting serine/threonine-protein kinase 1 (Q9BUB5 whole entry): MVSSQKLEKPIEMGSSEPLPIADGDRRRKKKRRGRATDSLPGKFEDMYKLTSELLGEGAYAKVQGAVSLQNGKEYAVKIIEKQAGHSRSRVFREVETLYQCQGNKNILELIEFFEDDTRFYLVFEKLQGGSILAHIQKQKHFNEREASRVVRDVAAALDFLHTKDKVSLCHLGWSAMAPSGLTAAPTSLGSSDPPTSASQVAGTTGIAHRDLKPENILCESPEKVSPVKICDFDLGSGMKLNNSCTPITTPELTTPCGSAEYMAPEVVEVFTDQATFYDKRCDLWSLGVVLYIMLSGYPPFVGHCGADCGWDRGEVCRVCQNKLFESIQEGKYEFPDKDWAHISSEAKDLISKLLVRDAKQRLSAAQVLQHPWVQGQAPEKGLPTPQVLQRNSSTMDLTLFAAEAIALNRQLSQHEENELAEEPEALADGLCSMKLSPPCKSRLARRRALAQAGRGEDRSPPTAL
Chain of Citron Rho-interacting kinase (O14578 whole entry): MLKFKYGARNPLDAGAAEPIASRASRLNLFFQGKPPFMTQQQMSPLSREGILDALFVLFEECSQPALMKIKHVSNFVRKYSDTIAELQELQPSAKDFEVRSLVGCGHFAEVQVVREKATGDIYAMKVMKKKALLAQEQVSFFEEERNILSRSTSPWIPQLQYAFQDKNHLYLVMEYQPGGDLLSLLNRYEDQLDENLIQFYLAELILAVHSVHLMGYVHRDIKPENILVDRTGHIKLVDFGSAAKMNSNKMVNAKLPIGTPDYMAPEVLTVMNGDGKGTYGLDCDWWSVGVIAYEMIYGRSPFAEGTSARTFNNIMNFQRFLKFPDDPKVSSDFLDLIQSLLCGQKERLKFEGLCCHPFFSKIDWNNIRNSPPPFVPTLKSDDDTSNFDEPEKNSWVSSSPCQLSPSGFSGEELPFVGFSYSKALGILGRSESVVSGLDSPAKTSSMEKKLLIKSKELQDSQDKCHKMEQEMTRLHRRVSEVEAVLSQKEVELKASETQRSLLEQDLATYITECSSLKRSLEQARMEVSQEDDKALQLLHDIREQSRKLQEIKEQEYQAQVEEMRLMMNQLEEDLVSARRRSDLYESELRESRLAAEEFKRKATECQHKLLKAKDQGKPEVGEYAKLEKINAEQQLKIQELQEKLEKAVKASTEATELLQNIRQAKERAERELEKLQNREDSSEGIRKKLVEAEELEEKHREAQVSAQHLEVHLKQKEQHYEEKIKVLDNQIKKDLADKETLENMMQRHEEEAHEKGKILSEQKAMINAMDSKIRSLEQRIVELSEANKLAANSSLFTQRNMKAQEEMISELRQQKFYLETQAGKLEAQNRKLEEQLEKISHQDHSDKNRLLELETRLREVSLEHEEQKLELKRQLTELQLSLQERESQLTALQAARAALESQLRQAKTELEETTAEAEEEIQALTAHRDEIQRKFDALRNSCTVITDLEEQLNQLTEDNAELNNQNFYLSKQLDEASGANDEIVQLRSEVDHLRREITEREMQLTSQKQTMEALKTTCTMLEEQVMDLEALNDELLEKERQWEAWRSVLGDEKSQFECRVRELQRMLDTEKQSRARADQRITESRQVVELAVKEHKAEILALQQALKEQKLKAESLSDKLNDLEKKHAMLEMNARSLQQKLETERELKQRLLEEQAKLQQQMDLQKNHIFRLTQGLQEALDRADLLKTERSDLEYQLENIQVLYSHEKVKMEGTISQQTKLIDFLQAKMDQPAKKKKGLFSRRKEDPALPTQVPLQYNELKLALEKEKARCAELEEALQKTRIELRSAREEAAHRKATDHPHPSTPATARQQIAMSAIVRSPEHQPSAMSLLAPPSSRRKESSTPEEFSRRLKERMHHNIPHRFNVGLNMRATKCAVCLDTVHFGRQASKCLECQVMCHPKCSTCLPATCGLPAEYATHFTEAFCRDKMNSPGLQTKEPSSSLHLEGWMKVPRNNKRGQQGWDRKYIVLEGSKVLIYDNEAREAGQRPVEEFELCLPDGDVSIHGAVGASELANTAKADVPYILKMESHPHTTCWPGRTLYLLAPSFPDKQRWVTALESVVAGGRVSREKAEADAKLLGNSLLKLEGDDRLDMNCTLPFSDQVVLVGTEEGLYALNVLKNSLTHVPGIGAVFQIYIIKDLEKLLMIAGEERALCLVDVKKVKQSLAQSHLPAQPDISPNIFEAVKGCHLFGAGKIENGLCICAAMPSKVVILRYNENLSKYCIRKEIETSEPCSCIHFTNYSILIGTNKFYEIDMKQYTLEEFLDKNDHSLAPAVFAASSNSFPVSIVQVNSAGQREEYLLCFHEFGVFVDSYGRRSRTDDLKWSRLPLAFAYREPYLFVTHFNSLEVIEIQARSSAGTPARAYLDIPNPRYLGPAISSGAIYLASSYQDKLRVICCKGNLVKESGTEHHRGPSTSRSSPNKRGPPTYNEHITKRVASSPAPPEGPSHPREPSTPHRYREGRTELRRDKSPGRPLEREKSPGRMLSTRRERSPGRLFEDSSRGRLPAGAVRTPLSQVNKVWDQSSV

SMILES | remaining at 10 min, 0.5 µM [1] | efflux ratio [2] | pIC50 [3] | pKi [4] | remaining at 10 min, 0.5 µM [5] | remaining at 10 min, 0.5 µM [6] | pIC50 (Cytochrome P450 3A4) | pIC50 [7] | Kp at 2 h [8] | pIC50 [9] | pIC50 [10] | pIC50 [11] | pIC50 [12] | pIC50 [13] | Activity [14] | pIC50 [15] | pIC50 [16] | Kp at 5.75 h [17] | concentration at 5.75 h [18] | concentration at 5.75 h [19]
COc1cc(-c2ccnc(NC(C)=O)c2)ccc1OC[C@@H](N)CC(C)C | 96% | 4.2 | 8.42 | 9.02 | 58% | 92% | 5.16 | – | – | – | – | – | – | – | – | – | – | – | – | –
COC(=O)Nc1cc(-c2ccc(OC[C@@](C)(N)CC(C)C)c(C3CC3)c2)ccn1 | 100% | – | 9.00 | 10.30 | 33% | 80% | 4.79 | 9.40 | – | – | – | – | – | – | – | – | – | – | – | –
CC(=O)Nc1cc(-c2ccc(OC[C@@H](N)CC(C)C)c(C#N)c2)ccn1 | 87% | 6.3 | 9.30 | 10.40 | 84% | 83% | 5.59 | – | 0.45 | – | – | – | – | – | – | – | – | – | – | –
COC(=O)Nc1cc(-c2ccc(OC[C@@](C)(N)CC(C)C)c(C#N)c2)ccn1 | 57% | – | 9.10 | 10.15 | 69% | 88% | 4.89 | 9.30 | – | – | – | – | – | – | – | – | – | – | – | –
COC(=O)Nc1cc(-c2ccc(OC[C@@](C)(N)CC(C)C)c(C(F)(F)F)c2)ccn1 | 80% | – | 8.82 | 10.30 | 68% | 74% | 5.16 | 9.52 | – | – | – | – | – | – | – | – | – | – | – | –
CC(=O)Nc1cc(-c2ccc(OC[C@@](C)(N)CC(C)C)c(C#N)c2)ccn1 | 64% | 2.5 | 9.22 | 10.05 | 71% | 78% | < 4.70 | 9.22 | – | – | – | – | – | – | – | – | – | – | – | –
CC(=O)Nc1cc(-c2ccc(OC[C@@](C)(N)CC(C)C)c(F)c2)ccn1 | 91% | – | 8.43 | 9.62 | 70% | 92% | < 4.70 | 9.10 | – | – | – | – | – | – | – | – | – | – | – | –
Cc1cc(-c2ccnc(C(F)F)c2)ncc1OC[C@@](C)(N)CC(C)C | 83% | – | 7.92 | 9.52 | 80% | 76% | < 4.70 | 8.85 | – | – | – | – | – | – | – | – | – | – | – | –
COC(=O)Nc1cc(-c2cc(C)c(OC[C@@](C)(N)CC(C)C)cn2)ccn1 | 100% | – | 7.92 | 8.85 | 99% | 100% | 4.89 | 8.77 | – | 6.11 | 5.74 | 7.22 | 6.22 | 5.89 | 38% | 6.16 | – | – | – | –
COC(=O)Nc1cc(-c2ccc(OC[C@@](C)(N)CC(C)C)c(C(F)F)c2)ccn1 | 88% | – | 9.22 | 10.40 | 69% | 86% | < 4.70 | 9.30 | – | – | – | – | – | – | – | – | – | – | – | –
COC(=O)Nc1cc(-c2ccc(OC[C@@](C)(N)CC(C)C)c(OC(F)(F)F)c2)ccn1 | 81% | – | 9.70 | 10.40 | 43% | 83% | 5.11 | 9.22 | – | – | – | – | – | – | – | – | – | – | – | –
Cc1cc(-c2cc(Cl)c(OC[C@@](C)(N)CC(C)C)cn2)ccn1 | 86% | – | 8.72 | 9.15 | 71% | 73% | < 4.70 | – | – | – | – | 5.89 | – | 5.72 | 50% | – | 5.82 | – | – | –
COC(=O)Nc1cc(-c2cnc(OC[C@@](C)(N)CC(C)C)c(OC)c2)ccn1 (racemic) | 86% | – | – | 8.60 | 59% | 79% | < 4.70 | 8.42 | – | – | – | – | – | – | 91% | – | – | – | – | –
COC(=O)Nc1cc(-c2ccc(OC[C@@](C)(N)CC(C)C)c(Cl)c2)ccn1 (racemic) | 81% | – | 8.85 | 10.05 | 66% | 85% | 6.13 | 9.30 | – | – | – | – | – | – | – | – | – | – | – | –
COC(=O)Nc1cc(-c2ccc(OC[C@@](C)(N)CC(C)C)c(C)c2)ccn1 (racemic) | 98% | – | 9.10 | 10.10 | 75% | 96% | < 4.70 | 9.10 | – | – | – | – | – | – | – | – | – | – | – | –
CC(C)C[C@](C)(N)COc1ccc(-c2ccnc(C(F)F)c2)nc1C(F)F [PILAVAPADIN] | – | – | – | – | – | – | – | – | – | – | – | – | – | – | – | – | – | 2.9 | 84 nM | 245 nM
